Test results from patent US8791118B2, “Pyridopyrazines as highly selective ras-Raf-Mek-Erk signal transduction pathway inhibitors” (Aeterna Zentaris GmbH, priority 2011, dated 2014).

Legend:
Erk2 = Erk2 (Homo sapiens, UniProt P28482); experiment: Erk2 alpha kinase assay (cell-free, ALPHA technology); type: biochemical; details: 10 μM ATP
Method: The inhibitory effect of the compounds according to the invention was tested on various serine/threonine, tyrosine and lipid kinases in enzymatic assays. Recombinant human kinases such as, for example, Erk2, were used in this case, partly as full-length kinases, partly as shortened fragments, but at least consisting of the functional kinase domains. The commercial kinase proteins (Proqinase, Upstate) were used as recombinant fusion proteins with GST (glutathion-S-transferase) or His-Tag. Depending on the type of substrate, the various kinase reactions were quantified by means of suitable ALPHA™ beads (Perkin-Elmer). The substance testing is described in detail hereinafter for the Erk assay. […] a) MAPK-ALPHAs (e.g. […] The fluorescence was detected the following morning in a Envision plate reader (Perkin-Elmer). The %-inhibition values per substance concentration were calculated by means of the following formula from the raw data determined in the Envision plate reader[…]: Eight determinations were made for each control and two for the substance samples. […] The IC50 values were determined using GraphPadPrism.

Chain of Erk2 (P28482 2-360 limits assumed): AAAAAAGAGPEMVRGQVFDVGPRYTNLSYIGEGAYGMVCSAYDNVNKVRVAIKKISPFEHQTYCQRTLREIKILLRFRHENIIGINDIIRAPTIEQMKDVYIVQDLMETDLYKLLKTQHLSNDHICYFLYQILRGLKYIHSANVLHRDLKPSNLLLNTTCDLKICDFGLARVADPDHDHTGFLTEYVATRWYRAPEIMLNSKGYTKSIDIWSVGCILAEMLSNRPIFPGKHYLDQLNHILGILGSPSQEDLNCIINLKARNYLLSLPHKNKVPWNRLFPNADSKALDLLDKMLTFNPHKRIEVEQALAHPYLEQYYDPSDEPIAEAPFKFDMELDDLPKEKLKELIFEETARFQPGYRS

Compound | IC50 (Erk2) [nM] | melting point [°C]
O=C(NCCCCc1ccccc1)Nc1ccc2ncc(-c3cnn(CCN4CCOCC4)c3)nc2n1 [Compound 127, 1-{3-[1-(2-Morpholin-4-yl-ethyl)-1H-pyrazol-4-yl]-pyrido[2,3-b]pyrazin-6-yl}-3-(4-phenyl-butyl)-urea] | 5 | –
C[C@H](CCCc1ccccc1)NC(=O)Nc1ccc2ncc(-c3ccoc3)nc2n1 [Compound 149, 1-(3-Furan-3-yl-pyrido[2,3-b]pyrazin-6-yl)-3-((R)-1-methyl-4-phenyl-butyl)-urea] | – | 218 to 220
C[C@H](CCCc1ccccc1)NC(=O)Nc1ccc2ncc(-c3cccnc3)nc2n1 [Compound 150, 1-((R)-1-Methyl-4-phenyl-butyl)-3-(3-pyridin-3-yl-pyrido[2,3-b]pyrazin-6-yl)-urea] | – | 218 to 220
C[C@H](CCCc1ccccc1)NC(=O)Nc1ccc2ncc(N3CCN(C)CC3)nc2n1 [Compound 153, 1-((R)-1-Methyl-4-phenyl-butyl)-3-[3-(4-methyl-piperazin-1-yl)-pyrido[2,3-b]pyrazin-6-yl]-urea] | – | 172 to 175
C[C@H](CCCc1ccccc1)NC(=O)Nc1ccc2ncc(N3CCCCC3)nc2n1 [Compound 154, 1-((R)-1-Methyl-4-phenyl-butyl)-3-(3-piperidin-1-yl-pyrido[2,3-b]pyrazin-6-yl)-urea] | – | 171 to 174
C[C@H](CCCc1ccccc1)NC(=O)Nc1ccc2ncc(-c3cnn(C)c3)nc2n1 [Compound 180, 1-((R)-1-Methyl-4-phenyl-butyl)-3-[3-(1-methyl-1H-pyrazol-4-yl)-pyrido[2,3-b]pyrazin-6-yl]urea] | 6 | –
C[C@H](CCCc1ccccc1)NC(=O)Nc1ccc2ncc(-c3ccc(O)c(F)c3)nc2n1 [Compound 185, 1-[3-(3-Fluoro-4-hydroxy-phenyl)-pyrido[2,3-b]pyrazin-6-yl]-3-((R)-1-methyl-4-phenyl-butyl)-urea] | – | 220 to 222

Further lines, results first:

IC50 (Erk2) [nM] | melting point [°C] | Compound
– | 230 to 232 | COc1ccc(-c2cnc3ccc(NC(=O)NCCCCc4ccccc4)nc3n2)cc1O [Compound 151, 1-[3-(3-Hydroxy-4-methoxy-phenyl)-pyrido[2,3-b]pyrazin-6-yl]-3-(4-phenyl-butyl)-urea]
– | 212 to 216 | O=C(NCCCCc1ccccc1)Nc1ccc2ncc(-c3ccoc3)nc2n1 [Compound 152, 1-(3-Furan-3-yl-pyrido[2,3-b]pyrazin-6-yl)-3-(4-phenyl-butyl)-urea]
2 | – | O=C(NCCCCc1ccccc1)Nc1ccc2ncc(-c3cnn(CCCO)c3)nc2n1 [Compound 162, 1-{3-[1-(3-Hydroxy-propyl)-1H-pyrazol-4-yl]-pyrido[2,3-b]pyrazin-6-yl}-3-(4-phenyl-butyl)-urea]
6 | – | O=C(NCCCCc1ccccc1)Nc1ccc2ncc(-c3ccc(O)c(F)c3)nc2n1 [Compound 174, 1-[3-(3-Fluoro-4-hydroxy-phenyl)-pyrido[2,3-b]-pyrazin-6-yl]-3-(4-phenyl-butyl)-urea]
6 | – | O=C(NCCCCc1ccccc1)Nc1ccc2ncc(-c3cccc(CO)c3)nc2n1 [Compound 175, 1-[3-(3-Hydroxymethyl-phenyl)-pyrido[2,3-b]pyrazin-6-yl]-3-(4-phenyl-butyl)-urea]
– | 213 to 215 | O=C(NCCCCc1ccccc1)Nc1ccc2ncc(-c3ccc(CO)cc3)nc2n1 [Compound 182, 1-[3-(4-Hydroxymethyl-phenyl)-pyrido[2,3-b]pyrazin-6-yl]-3-(4-phenyl-butyl)-urea]
– | 219 to 222 | O=C(NCCCCc1ccccc1)Nc1ccc2ncc(-c3ccncc3)nc2n1 [Compound 184, 1-(4-Phenyl-butyl)-3-(3-pyridin-4-yl-pyrido[2,3-b]pyrazin-6-yl)-urea]
– | 241 to 243 | O=C(NCCCCc1ccccc1)Nc1ccc2ncc(-c3ccc(O)c(Cl)c3)nc2n1 [Compound 186, 1-[3-(3-Chloro-4-hydroxy-phenyl)-pyrido[2,3-b]pyrazin-6-yl]-3-(4-phenyl-butyl)-urea]
